Assay results published in US20260355196A1, “INHIBITORS AND DEGRADERS OF PIP4K PROTEIN” (Larkspur Biosciences, Inc., priority 2023, published 2026).

Biological target: T1, PIP4K2C (Homo sapiens, UniProt Q8TBX8)
T1 sequence (Q8TBX8 1-421): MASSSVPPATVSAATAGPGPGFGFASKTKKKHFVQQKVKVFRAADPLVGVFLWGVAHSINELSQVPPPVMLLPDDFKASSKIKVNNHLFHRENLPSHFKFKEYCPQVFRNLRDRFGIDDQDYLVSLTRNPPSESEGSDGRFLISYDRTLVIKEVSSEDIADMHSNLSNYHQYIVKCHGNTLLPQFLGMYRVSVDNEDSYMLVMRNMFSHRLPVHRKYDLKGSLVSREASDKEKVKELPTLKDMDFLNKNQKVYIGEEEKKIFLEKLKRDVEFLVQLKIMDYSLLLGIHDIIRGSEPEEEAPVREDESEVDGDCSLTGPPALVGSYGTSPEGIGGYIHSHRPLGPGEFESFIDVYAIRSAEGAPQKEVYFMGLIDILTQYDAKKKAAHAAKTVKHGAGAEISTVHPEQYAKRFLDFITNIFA
Experiment: HiBiT PIP4K2C degradation assay in MOLT-4 cells (endogenous PIP4K2C C-terminally tagged with HiBiT)
Type: cell-based
Parameters: untagged in primary human PBMCs and monocyte-derived dendritic cells
Conditions: 6 hours of incubation time, rather than 24 hours; MOLT-4, top concentration 10 micromolar; read-out: HiBIT-degradation MOLT4 PIP4k2C DC50 (6 hours, marked *)
Summary of the method: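 MOLT-4 knock-in line, HiBiT on PIP4K2C C-terminus; 22,500 cells/well; 10-pt 3-fold titration from 10 micromolar, n=2; 24 h or 6 h, 37 C, 5% CO2; Nano-Glo HiBiT lytic luminescence; DC50 via Hill equation.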

## Cn1nc(C2CCC(=O)NC2=O)c2ccc(C3CCN(CC4CCN(C(=O)[C@H]5CC[C@H](Nc6ncc(F)c(-c7cccc(-n8ccccc8=O)c7)n6)CC5)CC4)CC3)cc21 (stereo partly drawn) [Compound 385, trans-3-(6-(1-((1-(4-((5-fluoro-4-(3-(2-oxopyridin-1(2H)-yl)phenyl)pyrimidin-2-yl)amino)cyclohexane-1-carbonyl)piperidin-4-yl)methyl)piperidin-4-yl)-1-methyl-1H-indazol-3-yl)piperidine-2,6-dione]
  DC50: < 500 nM

## O=C1CCC(Nc2ccc(N3CCC(CN4CCN(C(=O)[C@H]5CC[C@H](Nc6ncc(F)c(-c7cccc(-n8ccccc8=O)c7)n6)CC5)CC4)CC3)c(F)c2)C(=O)N1 (stereo partly drawn) [Compound 387, trans-3-((3-fluoro-4-(4-((4-(4-((5-fluoro-4-(3-(2-oxopyridin-1(2H)-yl)phenyl)pyrimidin-2-yl)amino)cyclohexane-1-carbonyl)piperazin-1-yl)methyl)piperidin-1-yl)phenyl)amino)piperidine-2,6-dione]
  DC50: < 500 nM

## Cn1nc(C2CCC(=O)NC2=O)c2ccc(N3CCN([C@H]4CC[C@H](C(=O)N[C@H]5CC[C@H](Nc6ncc(F)c(-c7cccc(-n8ccccc8=O)c7)n6)CC5)CC4)CC3)cc21 (stereo partly drawn) [Compound 388, trans-4-(4-(3-(2,6-dioxopiperidin-3-yl)-1-methyl-1H-indazol-6-yl)piperazin-1-yl)-N-(trans-4-((5-fluoro-4-(3-(2-oxopyridin-1(2H)-yl)phenyl)pyrimidin-2-yl)amino)cyclohexyl)cyclohexane-1-carboxamide]
  DC50: < 500 nM

## Cn1nc(C2CCC(=O)NC2=O)c2ccc(N3CCN([C@H]4CC[C@H](C(=O)N[C@H]5CC[C@H](Nc6ncc(F)c(-c7cccc(-c8ccc[nH]c8=O)c7)n6)CC5)CC4)CC3)cc21 (stereo partly drawn) [Compound 389, trans-(1r,4R)-4-(4-(3-(2,6-dioxopiperidin-3-yl)-1-methyl-1H-indazol-6-yl)piperazin-1-yl)-N-((1r,4R)-4-((5-fluoro-4-(3-(2-oxo-1,2-dihydropyridin-3-yl)phenyl)pyrimidin-2-yl)amino)cyclohexyl)cyclohexane-1-carboxamide]
  DC50: < 500 nM

## O=C1CCC(Nc2ccc(C3CCN(CC4CCN(C(=O)[C@H]5CC[C@H](Nc6ncc(F)c(-c7cccc(-n8ccccc8=O)c7)n6)CC5)CC4)CC3(F)F)c(F)c2)C(=O)N1 (stereo partly drawn) [Compound 390, trans-3-[4-[3,3-difluoro-1-[[1-[4-[[5-fluoro-4-[3-(2-oxo-1-pyridyl)phenyl]pyrimidin-2-yl]amino]cyclohexanecarbonyl]-4-piperidyl]methyl]-4-piperidyl]-3-fluoro-anilino]piperidine-2,6-dione]
  DC50: < 500 nM

## Cn1nc(C2CCC(=O)NC2=O)c2ccc(C3CCN(CC4CCN(C(=O)[C@H]5CC[C@H](Nc6ncc(F)c(-c7cccc(-c8ccc[nH]c8=O)c7)n6)CC5)CC4)CC3)cc21 (stereo partly drawn) [Compound 391, trans-3-(6-(1-((1-(4-((5-fluoro-4-(3-(2-oxo-1,2-dihydropyridin-3-yl)phenyl)pyrimidin-2-yl)amino)cyclohexane-1-carbonyl)piperidin-4-yl)methyl)piperidin-4-yl)-1-methyl-1H-indazol-3-yl)piperidine-2,6-dione]
  DC50: < 500 nM

## O=C1CCC(Nc2ccc(N3CCN(CC4(O)CCN(C(=O)[C@H]5CC[C@H](Nc6ncc(F)c(-c7cccc(-n8ccccc8=O)c7)n6)CC5)CC4)CC3)c(F)c2)C(=O)N1 (stereo partly drawn) [Compound 392, trans-3-((3-fluoro-4-(4-((1-(4-((5-fluoro-4-(3-(2-oxopyridin-1(2H)-yl)phenyl)pyrimidin-2-yl)amino)cyclohexane-1-carbonyl)-4-hydroxypiperidin-4-yl)methyl)piperazin-1-yl)phenyl)amino)piperidine-2,6-dione]
  DC50: < 500 nM

## O=C1CCC(Nc2ccc(N3CCN(CC4CCN(C(=O)[C@H]5CC[C@H](Nc6ncc(F)c(-c7cccc(N8CCCCC8=O)c7)n6)CC5)CC4)CC3)c(F)c2)C(=O)N1 (stereo partly drawn) [Compound 393, trans-3-[3-fluoro-4-[4-[[1-[4-[[5-fluoro-4-[3-(2-oxo-1-piperidyl)phenyl]pyrimidin-2-yl]amino]cyclohexanecarbonyl]-4-piperidyl]methyl]piperazin-1-yl]anilino]piperidine-2,6-dione]
  DC50: < 500 nM

## O=C1CCC(Nc2ccc(C3CCN(CC4CCN(C(=O)[C@H]5CC[C@H](Nc6ncc(F)c(-c7cccc(N8CCCCC8=O)c7)n6)CC5)CC4)CC3)c(F)c2)C(=O)N1 (stereo partly drawn) [Compound 394, trans-3-((3-fluoro-4-(1-((1-(4-((5-fluoro-4-(3-(2-oxopiperidin-1-yl)phenyl)pyrimidin-2-yl)amino)cyclohexane-1-carbonyl)piperidin-4-yl)methyl)piperidin-4-yl)phenyl)amino)piperidine-2,6-dione]
  DC50: < 500 nM

## O=C1CCC(Nc2ccc(N3CCC(N4CCC(CC(=O)N[C@H]5CC[C@H](Nc6ncc(F)c(-c7cccc(-n8ccccc8=O)c7)n6)CC5)CC4)CC3)c(F)c2)C(=O)N1 (stereo partly drawn) [Compound 395, trans-2-(1′-(4-((2,6-dioxopiperidin-3-yl)amino)-2-fluorophenyl)-[1,4′-bipiperidin]-4-yl)-N-((1r,4r)-4-((5-fluoro-4-(3-(2-oxopyridin-1(2H)-yl)phenyl)pyrimidin-2-yl)amino)cyclohexyl)acetamide]
  DC50: < 500 nM

## O=C1CCC(Nc2ccc(C3CCN([C@H]4CC[C@H](C(=O)N[C@H]5CC[C@H](Nc6ncc(F)c(-c7cccc(-c8ccc[nH]c8=O)c7)n6)CC5)CC4)CC3)c(F)c2)C(=O)N1 (stereo partly drawn) [Compound 396, trans-4-(4-(4-((2,6-dioxopiperidin-3-yl)amino)-2-fluorophenyl)piperidin-1-yl)-N-(trans-4-((5-fluoro-4-(3-(2-oxo-1,2-dihydropyridin-3-yl)phenyl)pyrimidin-2-yl)amino)cyclohexyl)cyclohexane-1-carboxamide]
  DC50: < 500 nM

## O=C1CCC(n2c(=O)oc3cc(N4CCN(CC5CCN(C(=O)[C@H]6CC[C@H](Nc7ncc(F)c(-c8cccc(-n9ccccc9=O)c8)n7)CC6)CC5)CC4)ccc32)C(=O)N1 (stereo partly drawn) [Compound 397, trans-3-(6-(4-((1-(4-((5-fluoro-4-(3-(2-oxopyridin-1(2H)-yl)phenyl)pyrimidin-2-yl)amino)cyclohexane-1-carbonyl)piperidin-4-yl)methyl)piperazin-1-yl)-2-oxobenzo[d]oxazol-3 (2H)-yl)piperidine-2,6-dione]
  DC50: < 500 nM

## O=C1CCC(n2c(=O)oc3cc(N4CCN(CC5CCN(C(=O)[C@H]6CC[C@H](Nc7ncc(F)c(-c8cccc(-c9ccc[nH]c9=O)c8)n7)CC6)CC5)CC4)ccc32)C(=O)N1 (stereo partly drawn) [Compound 398, trans-3-(6-(4-((1-(4-((5-fluoro-4-(3-(2-oxo-1,2-dihydropyridin-3-yl)phenyl)pyrimidin-2-yl)amino)cyclohexane-1-carbonyl)piperidin-4-yl)methyl)piperazin-1-yl)-2-oxobenzo[d]oxazol-3 (2H)-yl)piperidine-2,6-dione]
  DC50: < 500 nM

## Cn1nc(C2CCC(=O)NC2=O)c2ccc(N3CCN(CC4CCN(C(=O)[C@H]5CC[C@H](Nc6ncc(F)c(-c7cccc(-n8ccccc8=O)c7)n6)CC5)CC4)CC3)cc21 (stereo partly drawn) [Compound 399, 3-(6-(4-((1-(trans-4-((5-fluoro-4-(3-(2-oxopyridin-1(2H)-yl)phenyl)pyrimidin-2-yl)amino)cyclohexane-1-carbonyl)piperidin-4-yl)methyl)piperazin-1-yl)-1-methyl-1H-indazol-3-yl)piperidine-2,6-dione]
  DC50: < 500 nM

## O=C1CCC(Nc2ccc(N3CCC(CC4CCN(C(=O)[C@H]5CC[C@H](Nc6ncc(F)c(-c7cccc(-n8ccccc8=O)c7)n6)CC5)CC4)CC3)c(F)c2)C(=O)N1 (stereo partly drawn) [Compound 400, trans-3-((3-fluoro-4-(4-((1-(4-((5-fluoro-4-(3-(2-oxopyridin-1(2H)-yl)phenyl)pyrimidin-2-yl)amino)cyclohexane-1-carbonyl)piperidin-4-yl)methyl)piperidin-1-yl)phenyl)amino)piperidine-2,6-dione]
  DC50: < 500 nM

## O=C1CCC(Nc2ccc(C3CCN([C@H]4CC[C@H](NC(=O)[C@H]5CC[C@H](Nc6ncc(F)c(-c7cccc(-n8ccccc8=O)c7)n6)CC5)CC4)CC3)c(F)c2)C(=O)N1 (stereo partly drawn) [Compound 401, trans-(1r,4R)—N-((1r,4R)-4-(4-(4-((2,6-dioxopiperidin-3-yl)amino)-2-fluorophenyl)piperidin-1-yl)cyclohexyl)-4-((5-fluoro-4-(3-(2-oxopyridin-1(2H)-yl)phenyl)pyrimidin-2-yl)amino)cyclohexane-1-carboxamide]
  DC50: < 500 nM

## O=C1CCC(Nc2ccc(C3CCN([C@H]4CC[C@H](NC(=O)[C@H]5CC[C@H](Nc6ncc(F)c(-c7cccc(-c8ccc[nH]c8=O)c7)n6)CC5)CC4)CC3)c(F)c2)C(=O)N1 (stereo partly drawn) [Compound 402, trans-(1r,4R)—N-((1r,4R)-4-(4-(4-((2,6-dioxopiperidin-3-yl)amino)-2-fluorophenyl)piperidin-1-yl)cyclohexyl)-4-((5-fluoro-4-(3-(2-oxo-1,2-dihydropyridin-3-yl)phenyl)pyrimidin-2-yl)amino)cyclohexane-1-carboxamide]
  DC50: < 500 nM
